Earlier results, collected in patent US20050158380A1, “Sustained release oral dosage forms of gabapentin” (priority 2002, published 2005).

Conditions: in vivo

Q: With `NCC1(CC(=O)O)CCCCC1` [Gabapentin, 1-(aminomethyl)cyclohexaneacetic acid] as the compound, how does the half-life read?
A: 5 to 7 h
